Source: patent US9982005B2, “Macrolides and methods of their preparation and use” (President and Fellows of Harvard College, priority 2013, dated 2018)
≈ marks a conversion by molar mass, not a printed value. Read-outs that look alike come from different tables or passages of the source.

Tests used:
Assay type in all cases: cell-based
[1] = test system: SA101 S. aureus ATCC29213; experiment: broth dilution MIC, S. aureus SA101; conditions: Staphylococcus aureus, ATCC29213, SA101 S. aureus ATCC29213; read-out: MIC
Outline: (§1)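 An azithromycin control accompanied the test macrolides, which were assayed by CLSI-standard broth microdilution-type MIC determination. Some strains carry constitutive or inducible macrolide-resistance genotypes.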

[2] = test system: SA183 S. aureus ermA positive msrA unknown; experiment: broth dilution MIC, S. aureus SA183; conditions: Staphylococcus aureus
From the text: (§2) We have collected MIC data for a total of 50 novel macrolides that this platform has produced against over 21 unique strains of B. subtilis, E. coli, S. aureus, S. pneumoniae, and H. influenzae, including several multidrug-resistant strains, with a special focus on macrolide resistant mechanisms (vide supra). Azithromycin was included as a control macrolide. CLSI standard procedures for broth dilution MIC determination were used. […] These genotypes can be constitutive or inducible. The finding that C4-epi (unnatural) isomers of the “azaketolide” macrolide class have enhanced activities relative to C4 natural isomers is very exciting.

[3] = test system: SA418 S. aureus ermA negative msrA positive; experiment: broth dilution MIC, S. aureus SA418; conditions: Staphylococcus aureus
From the text: as §2

[4] = test system: SA506 S. aureus ermA positive msrA unknown; experiment: broth dilution MIC, S. aureus SA506; conditions: Staphylococcus aureus
From the text: as §2

[5] = test system: SA557 S. aureus ermA unknown msrA positive; experiment: broth dilution MIC, S. aureus SA557; conditions: Staphylococcus aureus; SA557 S. aureus ermA unknown msrA positive; read-out: MIC
From the text: as §2

[6] = test system: SA1707 S. aureus ermA negative msrA positive; experiment: broth dilution MIC, S. aureus SA1707; conditions: Staphylococcus aureus
From the text: as §2

[7] = test system: SA1708 S. aureus ermA positive msrA negative; experiment: broth dilution MIC, S. aureus SA1708; conditions: Staphylococcus aureus
From the text: as §2

[8] = test system: Spn 106 S. pneumonia ATCC49619; experiment: broth dilution MIC, S. pneumoniae Spn 106; conditions: Streptococcus pneumoniae
From the text: as §2

[9] = test system: Spn160 S. pneumoniae ermB unknown mefA positive; experiment: broth dilution MIC, S. pneumoniae Spn160; conditions: Streptococcus pneumoniae
From the text: as §2

[10] = test system: Spn1509 S. pneumoniae ermB positive mefA negative; experiment: broth dilution MIC, S. pneumoniae Spn1509; conditions: Streptococcus pneumoniae; Spn1509 S. pneumoniae ermB positive mefA negative; read-out: MIC
From the text: as §2

[11] = test system: Spn1537 S. pneumoniae ermB positive mefA positive; experiment: broth dilution MIC, S. pneumoniae Spn1537; conditions: Streptococcus pneumoniae
From the text: as §2

[12] = test system: Spn1427 S. pneumoniae ermB positive mefA negative; experiment: broth dilution MIC, S. pneumoniae Spn1427; conditions: Streptococcus pneumoniae
From the text: as §2

[13] = test system: HI175 H. influenzae ATCC49247; experiment: broth dilution MIC, H. influenzae HI175; conditions: Haemophilus influenzae
From the text: as §2

[14] = test system: HI281 H. influenzae; experiment: broth dilution MIC, H. influenzae HI281; conditions: Haemophilus influenzae
From the text: as §2

[15] = test system: EC107 E. coli ATCC25922; experiment: broth dilution MIC, E. coli EC107; conditions: Escherichia coli, read-out: MIC
Outline: as §1

[16] = test system: EC878 E. coli tolC; experiment: broth dilution MIC, E. coli EC878; conditions: Escherichia coli
Outline: as §1

[17] = test system: EC882 E. coli imp; experiment: broth dilution MIC, E. coli EC882; conditions: Escherichia coli
Outline: as §1

[18] = test system: BS1723 B. subtilis BS168 WT wild type; experiment: broth dilution MIC, B. subtilis BS1723; conditions: Bacillus subtilis, BS1723 B. subtilis BS168 WT wild type; read-out: MIC
Outline: as §1

[19] = test system: BS1725 B. subtilis ermC; experiment: broth dilution MIC, B. subtilis BS1725; conditions: Bacillus subtilis, BS1725 B. subtilis ermC (+ery)
Outline: as §1

[20] = test system: S. aureus (Newman, clinical isolate); experiment: MIC, S. aureus Newman; conditions: Staphylococcus aureus, S. aureus (Newman, clinical isolate), round 1
Outline: as §1

[21] = test system: E. coli (MC4100); experiment: MIC, E. coli MC4100; conditions: Escherichia coli, round 1, read-out: MIC
Outline: as §1

[22] = test system: E. coli strains; experiment: MIC against E. coli strains (Table M7); conditions: Escherichia coli, ATCC25922, E. coli ATCC 25922
Outline: as §1

[23] = test system: S. aureus strains; experiment: MIC against S. aureus strains (Table M7); conditions: Staphylococcus aureus
Outline: as §1

[24] = test system: S. pneumoniae strains; experiment: MIC against S. pneumoniae strains (Tables M7, M8); conditions: Streptococcus pneumoniae
From the text: CLSI standard procedures for broth dilution MIC determination were used. […] These genotypes can be constitutive or inducible.

[25] = test system: E. faecalis strains; experiment: MIC against E. faecalis strains (Table M8); conditions: Enterococcus faecalis, E. faecalis 29212
[26] = test system: A. baumannii strains; experiment: MIC against A. baumannii strains (Table M8); conditions: Acinetobacter baumannii, BAA747, A. baumannii BAA747-1
[27] = test system: K. pneumoniae strains; experiment: MIC against K. pneumoniae strains (Table M8); conditions: Klebsiella pneumoniae, K. pneumoniae 10031
[28] = test system: H. influenzae strains; experiment: MIC against H. influenzae strains (Table M8); conditions: Haemophilus influenzae
Outline: as §1

[29] = test system: Spn1533 S. pneumoniae ermB positive mefA positive; experiment: broth dilution MIC, S. pneumoniae Spn1533; conditions: Streptococcus pneumoniae
From the text: as §2

[30] = ATCC29213, S. aureus ATCC 29213, read-out: MIC S. aureus (ATCC 29213)
[31] = S. aureus 506, read-out: MIC S. aureus (506)
[32] = S. aureus 1708, read-out: MIC S. aureus (1708)
[33] = USA300, S. aureus USA300, read-out: MIC S. aureus (USA300)
[34] = S. pneumoniae 1509, read-out: MIC S. pneumoniae (1509)
[35] = S. pneumoniae 1533, read-out: MIC S. pneumoniae (1533)
[36] = S. pneumoniae 1537, read-out: MIC S. pneumoniae (1537)
[37] = H. influenzae 49247, read-out: MIC H. influenzae (49247)
[38] = H. influenzae 49766, read-out: MIC H. influenzae (49766)

Work on `CC[C@H]1OC(=O)C(C)(F)C(=O)[C@H](C)[C@@H](O[C@@H]2OC(C)CC(N(C)C)C2O)[C@](C)(OC)C[C@@H](C)CN[C@H](C)[C@H]2N(CCCCn3cc(-c4ccccn4)nn3)C(=O)O[C@]12C` (stereo partly drawn) [FSM-20738] yielded an MIC [1] of 0.5 to 1 µg/mL (≈ 0.601 to 1.2 µM), an MIC [2] of over 32 µg/mL and an MIC [3] of 1 µg/mL (≈ 1.2 µM). It also gave an MIC [4] of over 32 µg/mL, an MIC [5] of 1 µg/mL (≈ 1.2 µM) and an MIC [6] of 1 µg/mL (≈ 1.2 µM). It also gave an MIC [7] of 2 µg/mL (≈ 2.4 µM), an MIC ([8]; Spn 106 S. pneumonia ATCC49619, read-out: MIC) of 0.0156 to 0.25 µg/mL (≈ 0.0187 to 0.3 µM) and an MIC [9] of 0.0625 to 1 µg/mL (≈ 0.0751 to 1.2 µM). It also gave an MIC [10] of 0.5 to 8 µg/mL (≈ 0.601 to 9.62 µM), an MIC [11] of over 32 µg/mL and an MIC [12] of over 32 µg/mL. The MIC [13] was 0.5 to 8 µg/mL (≈ 0.601 to 9.62 µM), the MIC [14] was 4 to 32 µg/mL (≈ 4.81 to 38.5 µM) and the MIC [15] was 8 µg/mL (≈ 9.62 µM). It also gave an MIC [16] of 1 µg/mL (≈ 1.2 µM), an MIC [17] of 0.0625 µg/mL (≈ 0.0751 µM) and an MIC [18] of 0.25 µg/mL (≈ 0.3 µM). The MIC [19] was 4 µg/mL (≈ 4.81 µM), the MIC [20] was 1 µg/mL (≈ 1.2 µM) and the MIC [21] was 8 µg/mL (≈ 9.62 µM). The MIC [22] was 8 µg/mL (≈ 9.62 µM), the MIC [23, 30] was 0.5 µg/mL (≈ 0.601 µM) and the MIC [23, 31] was over 32 µg/mL. The MIC [23, 32] was 0.5 µg/mL (≈ 0.601 µM), the MIC [23, 33] was 1 µg/mL (≈ 1.2 µM) and the MIC [24, 34] was 2 µg/mL (≈ 2.4 µM). The MIC [24, 35] was over 32 µg/mL, the MIC [24, 36] was over 32 µg/mL and the MIC ([24]; read-out: MIC S. pneumonae (160)) was at most 0.0625 µg/mL. For the same compound, the MIC ([24]; read-out: MIC S. pneumoniae (49619)) was at most 0.0625 µg/mL, the MIC [25] was 0.125 µg/mL (≈ 0.15 µM) and the MIC [26] was 32 µg/mL (≈ 38.5 µM). For the same compound, the MIC [27] was 4 µg/mL (≈ 4.81 µM), the MIC [28, 37] was 0.5 µg/mL (≈ 0.601 µM) and the MIC [28, 38] was 4 µg/mL (≈ 4.81 µM).

Compound `CC[C@H]1OC(=O)C(C)C(=O)[C@@H](C)[C@@H](O[C@@H]2OC(C)CC(N(C)C)C2O)[C@](C)(OC)C[C@@H](C)CN[C@H](C)[C@H]2N(CCCCn3cc(-c4cccc(N)c4)nn3)C(=O)O[C@]12C` (stereo partly drawn) [FSM-20789] has an MIC [1] of 2 µg/mL (≈ 2.42 µM), an MIC [2] of over 32 µg/mL and an MIC [3] of 4 µg/mL (≈ 4.83 µM). It also gave an MIC [4] of over 32 µg/mL, an MIC [5] of 2 µg/mL (≈ 2.42 µM) and an MIC [6] of 4 µg/mL (≈ 4.83 µM). The MIC [7] was 2 µg/mL (≈ 2.42 µM), the MIC ([8]; ATCC49619) was 0.0625 µg/mL (≈ 0.0755 µM) and the MIC ([9]; Spn160 S. pneumoniae ermB unknown mefA positive, read-out: MIC) was 0.25 µg/mL (≈ 0.302 µM). It also gave an MIC [10] of 1 µg/mL (≈ 1.21 µM), an MIC [29] of over 32 µg/mL and an MIC [11] of over 32 µg/mL. For the same compound, the MIC [12] was 8 µg/mL (≈ 9.66 µM), the MIC [13] was 4 µg/mL (≈ 4.83 µM) and the MIC [14] was 8 µg/mL (≈ 9.66 µM). The MIC [22] was 16 µg/mL (≈ 19.3 µM), the MIC [23, 30] was 2 µg/mL (≈ 2.42 µM) and the MIC [23, 31] was over 32 µg/mL. It also gave an MIC [23, 32] of 2 µg/mL (≈ 2.42 µM), an MIC [23, 33] of 4 µg/mL (≈ 4.83 µM) and an MIC ([24]; S. pneumoniae 160, read-out: MIC S. pneumonae (160)) of 0.5 µg/mL (≈ 0.604 µM). For the same compound, the MIC [24, 34] was 4 µg/mL (≈ 4.83 µM), the MIC [24, 35] was over 32 µg/mL and the MIC [24, 36] was over 32 µg/mL. The MIC ([24]; S. pneumoniae 49619, read-out: MIC S. pneumoniae (49619)) was 0.125 µg/mL (≈ 0.151 µM), the MIC [25] was 0.5 µg/mL (≈ 0.604 µM) and the MIC [26] was 32 µg/mL (≈ 38.6 µM). It also gave an MIC [27] of 4 µg/mL (≈ 4.83 µM), an MIC [28, 37] of 2 µg/mL (≈ 2.42 µM) and an MIC [28, 38] of 8 µg/mL (≈ 9.66 µM).
